Test results from US12365677B2, “Degraders that target proteins via KEAP1” (DANA-FARBER CANCER INSTITUTE, INC., priority 2018, dated 2025).

Legend:
Format in all cases: cell-based
BRD2BD2 = molecular target: T1, BRD2BD2 (Homo sapiens, UniProt P25440); experiment: Rescue of degradation in reporter cell line by pre-treatment with inhibitors (compound 1); details: then concentration series of the degrader for 24 hours
T1 construct: a single BD (BD1 or BD2) of a BRD protein was tagged at the C-terminus with an enhanced Green Fluorescent Protein (eGFP); P2A linker (part left after the co-translational cut; mCherry is released as a separate chain) (C); expressed in transfected cells
Source text: (§1) To evaluate the activity of KEAP1-BRD targeting degraders in the cell, FACS-enabled stable reporter cell lines for single Bromodomain (BD) of the BRD2, 3 and 4 proteins were developed using the pCDNA5/FRT vector of the FLp-In system and followed the manufacturer's protocol.
(§2) A DNA sequence was constructed where a single BD (BD1 or BD2) of a BRD protein was tagged at the C-terminus with an enhanced Green Fluorescent Protein (eGFP). This sequence was followed by a P2A linker and a sequence that codes for mCherry fluorescent protein. The P2A linker that is located between the eGFP-tagged protein and the mCherry causes a single cut in the backbone amide bonds of the polypeptide during the translation of the mRNA, resulting in generation of two polypeptide chains, an eGFP-tagged protein and a mCherry protein. The expression level of these two polypeptides is therefore identical as they originate from a single mRNA, making the mCherry signal an expression level reporter as an internal reference. […]
(§3) The treated cells were then harvested by trypsin digest, brought to a volume of 200 μL with DMEM medium supplemented with 10% FBS and transferred to a 96-well assay plate for FACS reading. The eGFP/RFP ratio for each condition was then calculated and normalized against the zero-compound condition and plotted.
The rescue of BRD2BD2 degradation with two inhibitors JQ1 and MLN4924 was then determined. […]

[1] = test system: BRD2-BD1, BRD2-BD2, BRD3-BD1, BRD3-BD2, BRD4-BD1, BRD4-BD2 as GFP fusion proteins; experiment: FACS eGFP/mCherry reporter cell lines for single bromodomains, degradation compared across bromodomains; details: concentration series starting at 20 μM, 5× dilution, 24 hours at 37° C.
Source text: as §1, §2
as §3, with “plotted. […]” for “plotted.”

BRD4 = molecular target: T2, BRD4 (Homo sapiens, UniProt O60885); experiment: Immunoblot of MM.1S multiple myeloma cells; details: MM.1S cells
T2 construct: endogenous in cells; host or cells: MM.1S multiple myeloma cells
Procedure: (§4) MM.1S multiple myeloma cells were treated with 0, 1, 5 μM bifunctional compound 1 and 9 or bifunctional compound 20 (0.5 μM, as a positive control, known degrader of BRD) for 14 or 24 h, then lysed and immunoblotted with antibodies to BRD2, BRD3, BRD4 and β-Actin.
(§5) MM.1S multiple myeloma cells were treated with 0, 1, 5 μM bifunctional compound 1 and 9 or bifunctional compound 20 (0.5 μM, as a positive control) for 14 or 24 h, then lysed and immunoblotted with antibodies to BRD2, BRD3, BRD4 and β-Actin.

BRD3 = molecular target: T3, BRD3 (Homo sapiens, UniProt Q15059); experiment: Immunoblot of MM.1S multiple myeloma cells; details: MM.1S cells
T3 construct: endogenous in cells; host or cells: MM.1S multiple myeloma cells
Procedure: as §4, §5

BRD2 [2] = molecular target: T4, BRD2 (Homo sapiens, UniProt P25440); experiment: Immunoblot of MM.1S multiple myeloma cells; set-up: endogenous in cells; host or cells: MM.1S multiple myeloma cells; details: MM.1S cells
Procedure: as §4, §5

BRD2 [3] = molecular target: T4, BRD2; experiment: TMT quantitative proteomics, change in relative protein abundance in HEK293T cells; set-up: endogenous in cells; host or cells: HEK293T cells; details: 5 μM, 6 hours
Procedure: Lysis buffer (8 M Urea, 50 mM NaCl, 50 mM 4-(2hydroxyethyl)-1-piperazineethanesulfonic acid (EPPS) pH 8.5. Protease and Phosphatase inhibitors from Roche) was added to the cell pellets and homogenized by 20 passes through a 21 gauge (1.25 in. long) needle to achieve a cell lysate with a protein concentration between 1-4 mg/mL. A micro-BCA assay (Pierce™) was used to determine the final protein concentration in the cell lysate. 200 μg of protein for each sample were reduced and alkylated as previously described. Proteins were precipitated using methanol/chloroform. In brief, four volumes of methanol were added to the cell lysate, followed by one volume of chloroform, and finally three volumes of water. The mixture was vortexed and centrifuged to separate the chloroform phase from the aqueous phase. […]
Precipitated protein was resuspended in 4 M urea, 50 mM HEPES pH 7.4, followed by dilution to 1 M urea with the addition of 200 mM EPPS, pH 8. […] The sample channels were combined at a 1:1:1:1:1:1:1:1:1:1 ratio, desalted using C18 solid phase extraction cartridges (Waters™) and analyzed by LC-MS for channel ratio comparison.
Samples were then combined using the adjusted volumes determined in the channel ratio analysis and dried down in a speed vacuum. […]

BRD2^BD1 [4] = molecular target: T5, BRD2^BD1 (Homo sapiens, UniProt P25440+Q14145); experiment: Rescue of degradation in reporter cell line by pre-treatment with inhibitors (compound 9); details: pre-treated with 10 μM MLN4924 for 1 hour, then concentration series of the degrader for 24 hours
T5 construct: a single BD (BD1 or BD2) of a BRD protein was tagged at the C-terminus with an enhanced Green Fluorescent Protein (eGFP); P2A linker (part left after the co-translational cut; mCherry is released as a separate chain) (C); expressed in transfected cells
Source text: as §1
(§6) A DNA sequence was constructed where a single BD (BD1 or BD2) of a BRD protein was tagged at the C-terminus with an enhanced Green Fluorescent Protein (eGFP). This sequence was followed by a P2A linker and a sequence that codes for mCherry fluorescent protein. The P2A linker that is located between the eGFP-tagged protein and the mCherry causes a single cut in the backbone amide bonds of the polypeptide during the translation of the mRNA, resulting in generation of two polypeptide chains, an eGFP-tagged protein and a mCherry protein. The expression level of these two polypeptides is therefore identical as they originate from a single mRNA, making the mCherry signal an expression level reporter as an internal reference.
(§7) The reporter cell lines were seeded on a 48-well plate the day before. […]
as §3, with “plotted. […]” for “plotted.”

BRD2^BD1 [5] = molecular target: T6, BRD2^BD1 (Homo sapiens, UniProt P25440); experiment: as above; details: pre-treated with 10 μM JQ1 for 1 hour, then concentration series of the degrader for 24 hours
T6 construct: a single BD (BD1 or BD2) of a BRD protein was tagged at the C-terminus with an enhanced Green Fluorescent Protein (eGFP); P2A linker (part left after the co-translational cut; mCherry is released as a separate chain) (C); expressed in transfected cells
Source text: as §1, §6, §7
as §3, with “plotted. […]” for “plotted.”

T3 sequence (Q15059 whole entry): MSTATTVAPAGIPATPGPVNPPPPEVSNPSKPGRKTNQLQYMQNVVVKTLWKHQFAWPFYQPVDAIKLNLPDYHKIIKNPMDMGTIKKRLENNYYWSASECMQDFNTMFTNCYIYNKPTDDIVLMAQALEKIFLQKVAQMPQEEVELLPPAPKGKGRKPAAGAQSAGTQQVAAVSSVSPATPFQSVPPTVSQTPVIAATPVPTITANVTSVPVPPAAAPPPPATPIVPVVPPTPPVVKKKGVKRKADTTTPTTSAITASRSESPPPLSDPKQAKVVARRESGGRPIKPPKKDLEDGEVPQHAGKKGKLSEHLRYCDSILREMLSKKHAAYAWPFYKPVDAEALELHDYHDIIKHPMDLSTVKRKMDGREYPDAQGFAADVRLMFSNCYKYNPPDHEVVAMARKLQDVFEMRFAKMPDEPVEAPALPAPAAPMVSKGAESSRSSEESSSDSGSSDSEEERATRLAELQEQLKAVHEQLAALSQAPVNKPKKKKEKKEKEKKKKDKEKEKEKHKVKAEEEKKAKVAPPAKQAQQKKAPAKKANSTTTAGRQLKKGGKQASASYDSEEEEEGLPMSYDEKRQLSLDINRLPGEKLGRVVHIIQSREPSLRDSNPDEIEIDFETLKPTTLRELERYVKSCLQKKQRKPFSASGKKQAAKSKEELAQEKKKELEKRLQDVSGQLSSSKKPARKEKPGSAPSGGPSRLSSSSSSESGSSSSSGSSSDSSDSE
T4 sequence (P25440 whole entry): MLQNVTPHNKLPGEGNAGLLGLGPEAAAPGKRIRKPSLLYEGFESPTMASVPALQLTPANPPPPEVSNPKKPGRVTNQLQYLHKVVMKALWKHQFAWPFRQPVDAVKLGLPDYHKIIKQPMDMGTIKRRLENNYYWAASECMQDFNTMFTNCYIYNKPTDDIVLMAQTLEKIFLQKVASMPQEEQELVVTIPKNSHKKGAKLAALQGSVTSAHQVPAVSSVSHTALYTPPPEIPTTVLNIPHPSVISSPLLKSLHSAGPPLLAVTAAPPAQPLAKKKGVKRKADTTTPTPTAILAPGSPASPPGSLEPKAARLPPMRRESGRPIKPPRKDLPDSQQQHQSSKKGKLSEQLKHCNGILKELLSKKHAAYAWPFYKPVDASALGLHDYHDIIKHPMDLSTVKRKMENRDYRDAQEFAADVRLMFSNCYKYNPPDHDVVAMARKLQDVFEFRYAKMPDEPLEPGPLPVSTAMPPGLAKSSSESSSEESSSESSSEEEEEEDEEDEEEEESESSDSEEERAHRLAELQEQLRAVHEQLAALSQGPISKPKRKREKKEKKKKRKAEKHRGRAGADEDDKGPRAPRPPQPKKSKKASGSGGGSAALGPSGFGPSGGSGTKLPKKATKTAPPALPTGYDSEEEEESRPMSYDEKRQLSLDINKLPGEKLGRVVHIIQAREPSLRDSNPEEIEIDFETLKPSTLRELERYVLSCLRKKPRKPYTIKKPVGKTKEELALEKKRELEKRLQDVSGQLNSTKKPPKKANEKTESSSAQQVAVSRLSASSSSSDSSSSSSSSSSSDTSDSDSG
T1 sequence (P25440 344-453): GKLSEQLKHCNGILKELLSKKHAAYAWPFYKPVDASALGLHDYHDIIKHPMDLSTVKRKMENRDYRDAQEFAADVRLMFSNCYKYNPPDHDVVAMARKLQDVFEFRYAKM
T5 sequence (P25440 74-180 limits assumed): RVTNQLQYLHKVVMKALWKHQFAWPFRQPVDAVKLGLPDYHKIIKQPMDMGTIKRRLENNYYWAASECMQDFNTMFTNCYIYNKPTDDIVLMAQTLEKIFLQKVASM
T5 sequence (Q14145 whole entry): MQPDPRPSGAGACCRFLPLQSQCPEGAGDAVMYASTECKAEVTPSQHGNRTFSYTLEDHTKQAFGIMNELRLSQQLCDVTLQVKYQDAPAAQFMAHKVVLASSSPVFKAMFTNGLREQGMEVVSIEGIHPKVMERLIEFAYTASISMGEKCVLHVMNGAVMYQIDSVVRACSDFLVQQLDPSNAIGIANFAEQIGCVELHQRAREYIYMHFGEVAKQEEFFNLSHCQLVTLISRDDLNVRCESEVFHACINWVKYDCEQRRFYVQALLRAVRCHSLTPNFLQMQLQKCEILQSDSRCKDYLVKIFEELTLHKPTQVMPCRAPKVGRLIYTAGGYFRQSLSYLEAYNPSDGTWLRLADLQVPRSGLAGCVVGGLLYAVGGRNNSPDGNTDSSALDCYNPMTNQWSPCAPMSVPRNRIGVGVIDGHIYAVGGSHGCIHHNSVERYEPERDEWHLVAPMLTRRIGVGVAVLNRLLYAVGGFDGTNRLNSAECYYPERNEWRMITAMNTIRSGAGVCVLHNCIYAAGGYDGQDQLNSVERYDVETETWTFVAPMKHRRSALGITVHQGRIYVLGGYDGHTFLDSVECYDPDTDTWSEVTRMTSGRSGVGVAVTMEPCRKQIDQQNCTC
T6 sequence (P25440 74-180 limits assumed): as the sequence (P25440 74-180 limits assumed) above
T6 sequence (Q14145 whole entry, further chain): as the sequence (Q14145 whole entry) above

Row | rescue of BRD2BD2 degradation by JQ1 (BRD2BD2; pre-treated with 10 μM JQ1 for 1 hour) | degradation of BRD4 (immunoblot) (BRD4; 1 μM, both 14 and 24 h) | degradation of BRD3 (immunoblot) (BRD3; 1 μM, both 14 and 24 h) | degradation of BRD2 (immunoblot) (BRD2 [2]; 1 μM, both 14 and 24 h) | BRD2 degradation (relative protein abundance vs DMSO) (BRD2 [3]) | rescue of BRD2^BD1 degradation by JQ1 (BRD2^BD1 [5]) | degradation of BRD4 (immunoblot) (BRD4; 5 μM, 24 h) | degradation of BRD3 (immunoblot) (BRD3; 5 μM, 24 h) | degradation of BRD2 (immunoblot) (BRD2 [2]; 5 μM, 24 h) | SMILES | rescue of BRD2BD2 degradation by MLN4924 (BRD2BD2; pre-treated with 10 μM MLN4924 for 1 hour) | degradation of BRD bromodomain reporters (normalized eGFP/RFP ratio), comparison between bromodomains [1] | degradation of BRD4 (immunoblot), hook effect (BRD4; 5 μM, 14 or 24 h) | degradation of BRD3 (immunoblot), hook effect (BRD3; 5 μM, 14 or 24 h) | degradation of BRD2 (immunoblot), hook effect (BRD2 [2]; 5 μM, 14 or 24 h) | rescue of BRD2^BD1 degradation by MLN4924 (BRD2^BD1 [4])
1 | can be rescued by JQ1 | strongly induced the degradation | strongly induced the degradation | slightly decreased the abundance | – | – | – | – | – | COc1cc(C(CC(=O)O)c2ccc(C)c(CN3C[C@@H](C)Oc4cc(CCCCCCNC(=O)C[C@@H]5N=C(c6ccc(Cl)cc6)c6c(sc(C)c6C)-n6c(C)nnc65)ccc4S3(=O)=O)c2)cc2nnn(C)c12 (stereo partly drawn) [compound 1, 3-(3-(((R)-7-(6-(2-((S)-4-(4-chlorophenyl)-2,3,9-trimethyl-6H-thieno[3,2-f][1,2,4]triazolo[4,3-a][1,4]diazepin-6-yl)acetamido)hexyl)-4-methyl-1,1-dioxido-3,4-dihydro-2H-benzo[b][1,4,5]oxathiazepin-2-yl)methyl)-4-methylphenyl)-3-(7-methoxy-1-methyl-1H-benzo[d][1,2,3]triazol-5-yl)propanoic acid] | rescued by the neddylation inhibitor, MLN4924 | with the exception of BRD4BD1, bifunctional compound 1 targeted BRD-BD proteins with similar efficiency | a decrease in BRD2, BRD3 and BRD4 degradation were observed | a decrease in BRD2, BRD3 and BRD4 degradation were observed | a decrease in BRD2, BRD3 and BRD4 degradation were observed | –
2 | – | – | – | – | BRD2 degradation was observed | can be rescued by JQ1 | slightly degraded | slightly degraded | slightly degraded | COc1cc(C(CC(=O)O)c2ccc(C)c(CN(C)S(=O)(=O)c3ccc(OCCCCCCNC(=O)C[C@@H]4N=C(c5ccc(Cl)cc5)c5c(sc(C)c5C)-n5c(C)nnc54)cc3)c2)cc2nnn(C)c12 (stereo partly drawn) [compound 9, 3-(3-((4-(6-(2-((6S)-4-(4-chlorophenyl)-2,3,9-trimethyl-6H-thieno[3,2-f][1,2,4]triazolo[4,3-a][1,4]diazepin-6-yl)acetamido)hexyloxy)-N-methylphenylsulfonamido)methyl)-4-methylphenyl)-3-(7-methoxy-1-methyl-1H-benzo[d][1,2,3]triazol-5-yl)propanoic acid] | – | modest preference for BRD2^BD1 and BRD4^BD1 | – | – | – | rescued by the neddylation inhibitor, MLN4924
